{"source": "patent US10780174B2", "about": "“Lipid-linked prodrugs” (The University of British Columbia, priority 2015, dated 2020)", "key": {"[1]": {"test": "Particle size and polydispersity of LNP containing prodrug (dynamic light scattering)", "type": "physicochemical", "settings": "PDI in brackets; for Particle size (PDI) PC-Chol LNP: LD-DEX prodrug in PC-Chol LNP; for Particle size (PDI) [ionizable LNP]: LD-DEX prodrug in ionizable LNP", "procedure": "(§1) Preparation of LNP Systems: PC-Chol LNP systems were prepared by rapidly mixing POPC, cholesterol, lipid-linked prodrug and PEG-DMPE (in molar ratio of 49/39/10/2) dissolved in ethanol with phosphate-buffered saline using a T-junction mixer. Formulations were dialyzed against phosphate-buffered saline to remove residual ethanol and to raise the pH to 7.4. PC-TO and ionizable LNP systems were prepared in the same way except that the lipid compositions for these systems are: POPC, triolein, lipid-linked prodrug and PEG-DSPE (in molar ration of 19/70/10/1), and ionizable lipid, DSPC, cholesterol, lipid-linked prodrug and PEG-DMPE (in molar ration of 40/10/38.5/10/1.5), respectively.\nCharacterization of LNP: Particle size was determined by dynamic light scattering using a Malvern Zetasizer Nano ZS™ (Malvern, UK) following buffer exchange into phosphate-buffered saline. Number-weighted size and distribution data was used. Lipid concentrations were determined by measuring total cholesterol using the Cholesterol E enzymatic assay kit from Wako Chemicals USA™ (Richmond, Va.). The morphology of LNP formulations containing LD-DEX was analyzed by cryogenic-transmission electron microscopy (cryoTEM) as described previously [Leung et al. (2012)]."}, "[2]": {"test": "In vitro dissociation of lipid-linked prodrugs from LNP in human plasma", "type": "in vitro ADME", "settings": "human plasma over 24 h, 37° C., PC-Chol LNP or ionizable LNP", "procedure": "LNP were incubated for 0, 3, 5 and 24 h at 37° C. in 400 μL of sterile human plasma (Cedarlane™, Burlington, Ontario) at a final lipid concentration of 1.2 mM. At the various time-points, samples were loaded onto a 1.5×27 cm Sepharose CL-4B column (Sigma-Aldrich™, St. Louis, Mo.). 30×2 mL fractions were collected. Three volumes of methanol/acetonitrile (1:1) were added to each fraction and analyzed by UHPLC to determine the residual LD-DEX/DTX as described above."}, "[3]": {"test": "In vitro degradation of lipid-linked prodrugs in LNP, mouse plasma", "type": "in vitro ADME", "settings": "for prodrug degradation over 24 h in mouse plasma: LNP, 0, 2, 4 and 24 h; for prodrug cleavage/degradation after 1 h in plasma: 37° C., mouse plasma; for release of active drug (UPLC chromatogram) in mouse plasma: 24 h incubation", "procedure": "(§2) Quantitation of prodrugs by HPLC: LD-DEX/DTX were quantified by ultra high-pressure liquid chromatography (UHPLC) using a Waters Acquity™ UPLC system equipped with a photodiode array detector (PDA) and evaporative light scattering (ELS) detector; Empower™ data acquisition software version 3.0 was used (Waters™, USA). Separations were performed using a Waters Acquity™ BEH C18 column (1.7 μm, 2.1×100 mm) at a flow rate of 0.5 ml/min, with mobile phases A and B consisting of methanol/10 mM ammonium bicarbonate (80/20% v/v) and methanol/acetonitrile (80/20% v/v), respectively. The mobile phases were delivered at a programmed linear gradient (45%-80% B in 1 min then to 99% B at 2 min) at a column temperature of 55° C. The analyte was measured by PDA (at a wavelength of 239 nm) and ELS detector against calibration standard curves. For the analysis of LD-DEX/DTX breakdown to active compound, linear gradients of 20/80% to 100/0% (acetonitrile/water, v/v) over 7 min were used.\nTo determine the biodegradability of the dexamethasone or docetaxel prodrugs (LD-DEX/DTX), 1 mg/mL LNP was incubated in mouse plasma (Cedarlane™, Burlington, Ontario) or PBS supplemented with 10 U of purified esterase (Sigma-Aldrich™, St. […] Post incubation, four volumes of chloroform/methanol (2:1) was added and the mixture was vortex mixed. Samples were centrifuged at 13,000 g for 5 minutes and the upper phase was discarded. The remaining organic phase was dried down under vacuum and the resulting lipid extract was dissolved in methanol/acetonitrile (1:1). Quantity of parent LD-DEX/DTX compound was determined by ultra high pressure liquid chromatography on a Waters Acquity™ H-Class UPLC System™ equipped with a BEH C18 column and a photodiode array detector."}, "[4]": {"system": "immunostimulatory effects of LNP-CpG (plasma cytokines)", "test": "In vivo immune suppression by LD-DEX prodrugs, LNP-CpG model", "design": "species or system C57Bl/6 mice", "settings": "mice, i.v., 10 mg/kg of CpG, 2 h post injection", "procedure": "(§3) 6-8 Weeks old female C57Bl/6 mice (Charles River Laboratories™, Wilmington, Mass.) were injected intravenously with lipid nanoparticles containing CpG DNA oligonucleotides (10 mg/kg), mRNA (3 mg/kg) or plasmid DNA (pDNA) (1 mg/kg). Animals were euthanized 2 hours post-injection and blood was collected via intracardiac or saphenous sampling. Plasma was separated from whole blood by centrifugation and analyzed for proinflammatory cytokines using the Mesoscale Proinflammatory Multiplex™ kit (Rockville, Md.) according to manufacturer's instruction. All procedures were approved by the Animal Care Committee at the University of British Columbia and were performed in accordance with guidelines established by the Canadian Council on Animal Care."}, "[5]": {"system": "purified porcine esterase", "test": "In vitro degradation of lipid-linked prodrugs in LNP, purified esterase in PBS", "settings": "for prodrug degradation over 24 h in purified esterase: LNP, 0, 2, 4 and 24 h; for release of active drug (UPLC chromatogram) in purified esterase: 24 h incubation"}, "[6]": {"test": "Prodrug incorporation (entrapment) in lipid nanoparticles, UHPLC", "type": "physicochemical", "settings": "for % Entrapment PC-Chol LNP: LD-DEX prodrug in PC-Chol LNP; for % Entrapment [ionizable LNP]: LD-DEX prodrug in ionizable LNP", "procedure": "as §1, §2"}, "[7]": {"system": "immunostimulatory effects of LNP-pDNA (plasma cytokines)", "test": "In vivo immune suppression by LD-DEX prodrugs, LNP-pDNA model", "design": "species or system C57Bl/6 mice", "settings": "mice, i.v., 1 mg/kg of pDNA, 2 h post injection", "procedure": "as §3"}, "[8]": {"system": "purified porcine esterase", "settings": "pig, 1 mg/mL LNP"}, "[9]": {"system": "immunostimulatory effects of LNP-mRNA (plasma cytokines)", "test": "In vivo immune suppression by LD-DEX prodrugs, LNP-mRNA model", "design": "species or system C57Bl/6 mice", "settings": "mice, 3 mg/kg of mRNA, 2 h post injection", "procedure": "as §3"}, "[10]": {"system": "IL1β expression in RAW 264.7 mouse macrophage cells", "test": "In vitro immune suppression, LPS-treated RAW 264.7 cells, IL1β qRT-PCR", "type": "cell-based", "settings": "2 ng/mL LPS, 4 h", "procedure": "RAW 264.7 mouse macrophage cells were seeded at 250,000 cells per mL on 12-well plates and incubated at 37° C. overnight. Lipopolysaccharide (LPS) was dissolved in phosphate buffered saline at a concentration of 2 μg/ml. Cells were treated with lipid nanoparticles containing LD-DEX prodrugs and 2 ng/ml of LPS for 4 hours. This LPS concentration was chosen due to its ability to increase IL1β expression approximately 1000 times as compared to untreated cells. At the end of the incubation period, culture medium was aspirated and cellular RNA was extracted using the Purelink RNA™ extraction kit according to manufacturer's protocol (Life Technologies™, Burlington, ON). The concentration of extracted RNA was determined using a Nanodrop Lite™ (Thermo Fisher™). 1 μg of RNA was converted to cDNA using the High Capacity cDNA Reverse Transcription kit (Life Technologies™, Burlington, ON). In order to validate the sample preparation, a no template control and a negative reverse transcriptase control were included. The cDNA was then quantified using comparative real-time qPCR where the Ct (threshold cycle) values are converted to relative quantity using the 2-ΔΔCT method. The primer-probe sets were designed to bind to cDNA of Interleukin-1β(IL1β). Hypoxanthine-guanine phosphoribosyltransferase (HPRT) was chosen as the endogenous normalizer gene, which is known to maintain consistent levels with varying treatments."}}, "note": "Entries after “also recorded” stand apart in the source; their conditions may differ. Read-outs that look alike come from different tables or passages of the source."}
{"smiles": "CCCCC/C=C\\C/C=C\\CCCCCCCC(=O)OC[C@H](COC(=O)CCC(=O)OCC(=O)[C@@]1(O)[C@H](C)C[C@H]2[C@@H]3CCC4=CC(=O)C=C[C@]4(C)[C@@]3(F)[C@@H](O)C[C@@]21C)OC(=O)CCCCCCC/C=C\\C/C=C\\CCCCC", "note": "[LD02-DEX, 2,3-dilinoleoyloxypropyl (2-((8S,9R,10S,11S,13S,14S,16R,17R)-9-fluoro-11,17-dihydroxy-10,13,16-trimethyl-3-oxo-6,7,8,9,10,11,12,13,14,15,16,17-dodecahydro-3H-cyclopenta[a]phenanthren-17-yl)-2-oxoethyl) succinate]", "values": [{"measurement": "Particle size (PDI) PC-Chol LNP", "setting": "[1]", "result": "53 (0.05) nm"}, {"measurement": "Particle size (PDI) [ionizable LNP]", "setting": "[1]", "result": "[49 (0.05)] nm"}, {"measurement": "prodrug dissociation rate from LNP", "setting": "[2]", "result": "dissociated from lipid nanoparticles at a slower rate than LD03-DEX"}, {"measurement": "prodrug dissociation rate from LNP", "setting": "[2]; listed as LD02", "result": "dissociates from LNP at a slower rate than that of LD03"}, {"measurement": "prodrug degradation over 24 h in mouse plasma", "setting": "[3]", "result": "progressively degraded"}, {"measurement": "prodrug cleavage/degradation after 1 h in plasma", "setting": "[3]; LNP", "result": "virtually no degradation"}, {"measurement": "release of active drug (UPLC chromatogram) in mouse plasma", "setting": "[3]; LNP", "result": "a peak corresponding to active dexamethasone (DEX) appeared"}, {"measurement": "plasma TNFα and KC/GRO levels versus control LNP-CpG", "setting": "[4]", "result": "marked reduction in cytokine levels"}, {"measurement": "prodrug degradation over 24 h in purified esterase", "setting": "[5]", "result": "progressively degraded"}, {"measurement": "release of active drug (UPLC chromatogram) in purified esterase", "setting": "[5]; LNP", "result": "a peak corresponding to active dexamethasone (DEX) appeared"}, {"measurement": "% Entrapment PC-Chol LNP", "setting": "[6]", "result": 100, "unit": "%"}, {"measurement": "% Entrapment [ionizable LNP]", "setting": "[6]", "result": "[99] %"}]}
{"smiles": "CCCCC/C=C\\C/C=C\\CCCCCCCCOC(=O)CCC(=O)OCC(=O)[C@@]1(O)[C@H](C)C[C@H]2[C@@H]3CCC4=CC(=O)C=C[C@]4(C)[C@@]3(F)[C@@H](O)C[C@@]21C", "note": "[LD03-DEX, linoleyl 2-((8S,9R,10S,11S,13S,14S,16R,17R)-9-fluoro-11,17-dihydroxy-10,13,16-trimethyl-3-oxo-6,7,8,9,10,11,12,13,14,15,16,17-dodecahydro-3H-cyclopenta[a]phenanthren-47-yl)-2-oxoethyl succinate]", "values": [{"measurement": "Particle size (PDI) PC-Chol LNP", "setting": "[1]", "result": "64 (0.06) nm"}, {"measurement": "Particle size (PDI) [ionizable LNP]", "setting": "[1]", "result": "[48 (0.04)] nm"}, {"measurement": "plasma cytokine levels versus control LNP-pDNA", "setting": "[7]; 1 mg/kg", "result": "efficiently suppressed cytokine levels"}, {"measurement": "plasma cytokine levels versus control LNP-pDNA", "setting": "[7]; listed as LD03, 1 mg/kg", "result": "suppresses the immunostimulatory effects of LNP-pDNA"}, {"measurement": "prodrug degradation over 24 h in mouse plasma", "setting": "[3]", "result": "progressively degraded; also recorded: degraded at a faster rate than LD02-DEX"}, {"measurement": "prodrug cleavage in plasma", "setting": "[3]; LNP, 1 or 4 h incubation in plasma", "result": "progressive prodrug cleavage"}, {"measurement": "prodrug cleavage/degradation after 1 h in plasma", "setting": "[3]; LNP", "result": "significant cleavage"}, {"measurement": "release of active drug (UPLC chromatogram) in mouse plasma", "setting": "[3]; LNP", "result": "a peak corresponding to active dexamethasone (DEX) appeared"}, {"measurement": "prodrug degradation over 24 h in purified esterase", "setting": "[8]", "result": "degraded at a faster rate than LD02-DEX"}, {"measurement": "plasma cytokine levels versus control LNP-mRNA", "setting": "[9]; 3 mg/kg", "result": "significantly reduced levels"}, {"measurement": "plasma cytokine levels versus control LNP-mRNA", "setting": "[9]; listed as LD03, 3 mg/kg", "result": "suppresses the immunostimulatory effects of LNP-mRNA"}, {"measurement": "plasma TNFα and KC/GRO levels versus control LNP-CpG", "setting": "[4]", "result": "marked reduction in cytokine levels"}, {"measurement": "IL1β expression versus control LNP without prodrug", "setting": "[10]", "result": "able to reduce IL1β expression"}, {"measurement": "prodrug degradation over 24 h in purified esterase", "setting": "[5]", "result": "progressively degraded"}, {"measurement": "prodrug cleavage in PBS containing isolated esterases", "setting": "[5]; LNP, 1 or 4 h incubation", "result": "progressive prodrug cleavage"}, {"measurement": "release of active drug (UPLC chromatogram) in purified esterase", "setting": "[5]; LNP", "result": "a peak corresponding to active dexamethasone (DEX) appeared"}, {"measurement": "% Entrapment PC-Chol LNP", "setting": "[6]", "result": 94, "unit": "%"}, {"measurement": "% Entrapment [ionizable LNP]", "setting": "[6]", "result": "[100] %"}]}
